Data reported in US10821110B2, “Composite preparation, containing novel 3-(4--(benzyloxy)phenyl)hex-4-inoic acid derivative and another active ingredient, for preventing or treating metabolic diseases” (HYUNDAI PHARM CO., LTD., priority 2014, dated 2020).

target: T1, human GPR40 (Homo sapiens, UniProt O14842); experiment: Activation of GPR40 protein: intracellular calcium change (Fluo-4, Flexstation 3) in transfected HEK-293 cells; format: cell-based; settings: HEK-293 cells transfected with human GPR40; intracellular calcium; read-out: EC50
T1 construct: host or cells: HEK-293
T1 sequence (O14842 whole entry): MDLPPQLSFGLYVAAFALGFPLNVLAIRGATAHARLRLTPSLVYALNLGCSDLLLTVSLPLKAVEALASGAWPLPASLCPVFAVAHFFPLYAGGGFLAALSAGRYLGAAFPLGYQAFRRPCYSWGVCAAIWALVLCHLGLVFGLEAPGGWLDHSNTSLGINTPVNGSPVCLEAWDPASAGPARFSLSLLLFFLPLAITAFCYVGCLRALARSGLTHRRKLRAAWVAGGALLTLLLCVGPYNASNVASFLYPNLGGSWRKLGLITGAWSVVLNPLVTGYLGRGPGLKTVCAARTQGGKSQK
Experimental: The activation of GPR40 protein by a novel 3-(4-(benzyloxy)phenyl)hex-4-ynoic acid derivative of the present invention was evaluated through the change in intracellular calcium concentration due to the activity of GPR40 protein. First, HEK-293 cells were transfected with human GPR40 DNA (Origene, RC218370) by using Fugene HD (Promega, E2311). […] After 24 hours, the cell culture medium was removed, and replaced with Dulbecco's Modified Eagle Medium (DMEM, 50 μl) supplemented with 1% fetal bovine serum (FBS). For the measurement of calcium concentration, 50 μL of Fluo-4 reagent (Invitrogen, F10471) was added to each well and cultured in a 37° C. incubator for 2 hours. […] Two hours after the initiation of the culture, the prepared samples were automatically injected into the cells using Flexstation 3 (Molecular Devices), and then, the change in intracellular calcium concentration was measured using SoftMax®Pro software for 120 seconds. Here, for a non-treated group, dimethylsulfoxide (DMSO) was injected into the cells to measure the change in calcium concentration. The GPR40 protein activity was calculated from the measured calcium concentration result values using equation 1 below, and the GPR40 activity (EC50 value) by the samples was obtained. […] GPR 40 activity=(intracellular calcium concentration increased by the sample)/(intracellular calcium concentration of the non-treated group)×100 [Equation 1]

`CC#C[C@H](CC(=O)O)c1ccc(OCc2cccc(C3=CCC4(CC3)OCCO4)c2)cc1` [Example 10, L-lysine (3R)-3-(4-(3-(1,4-dioxaspiro[4.5]dec-7-en-8-yl)benzyloxy)phenyl)hex-4-ynoate] and `CC#C[C@@H](CC(=O)O)c1ccc(OCc2ccc(CN3CCN(c4ccc(C(F)(F)F)cc4)CC3)cc2)cc1` [Example 22, (S)-3-(4-(4-((4-(4-(trifluoromethyl)phenyl)piperazin-1-yl)methyl)benzyloxy)phenyl)hex-4-ynoic acid] cannot be ordered by EC50: greater than 300 nM for the first, greater than 300 nM for the second.

`CC#C[C@@H](CC(=O)O)c1ccc(OCc2ccc(CN3CCN(c4ccc(C#N)cn4)CC3)cc2)cc1` [Example 45, (S)-3-(4-(4-((4-(5-cyanopyridin-2-yl)piperazin-1-yl)methyl)benzyloxy)phenyl)hex-4-ynoic acid] and `CC#C[C@@H](CC(=O)O)c1ccc(OCc2ccc(CN3CCC(c4ccccc4)C3)cc2)cc1` (stereo partly drawn) [Example 46, (3S)-3-(4-(4-((3-phenylpyrrolidin-1-yl)methyl)benzyloxy)phenyl)hex-4-ynoic acid] cannot be ordered by EC50: greater than 300 nM for the first, greater than 300 nM for the second.

First: potassium (S)-3-(4-(4-((4-(4-(trifluoromethyl)phenyl)piperazin-1-yl)methyl)benzyloxy)phenyl)hex-4-ynoate [Example 24]
Second: CC#CC(CC(=O)O)c1ccc(OCc2ccc(CN3CCN(c4ccc(C(F)(F)F)cc4)CC3)cc2)cc1 (stereo not drawn) [Example 19, 3-(4-(4-((4-(4-(trifluoromethyl)phenyl)piperazin-1-yl)methyl)benzyloxy)phenyl)hex-4-ynoic acid]
The EC50 of the first is lower: 200 to 300 nM for the first, greater than 300 nM for the second. The first is the more potent here.

`CC#CC(CC(=O)O)c1ccc(OCc2ccc(CN3CCC(c4ccccc4)CC3)cc2)cc1` (stereo not drawn) [Example 17, 3-(4-(4-((4-phenylpiperidin-1-yl)methyl)benzyloxy)phenyl)hex-4-ynoic acid] and `CC#C[C@@H](CC(=O)O)c1ccc(OCc2ccc(CCN3CCc4cc(OC)ccc4C3)cc2)cc1` [Example 48, (S)-3-(4-(4-(2-(6-methoxy-3,4-dihydroisoquinolin-2(1H)-yl)ethyl)benzyloxy)phenyl)hex-4-ynoic acid] cannot be ordered by EC50: greater than 300 nM for the first, greater than 300 nM for the second.

`CC#C[C@@H](CC(=O)O)c1ccc(OCc2ccc(CCN3CCc4ccccc4C3)cc2)cc1` [Example 50, (S)-3-(4-(4-(2-(3,4-dihydroisoquinolin-2(1H)-yl)ethyl)benzyloxy)phenyl)hex-4-ynoic acid] and `CC#C[C@@H](CC(=O)O)c1ccc(OCc2ccc(CN3CC=C(c4ccc(OCCCS(C)(=O)=O)cc4)CC3)cc2)cc1` [Example 33, (S)-3-(4-(4-((4-(4-(3-(methylsulfonyl)propoxy)phenyl)-5,6-dihydropyridin-1(2H)-yl)methyl)benzyloxy)phenyl)hex-4-ynoic acid] cannot be ordered by EC50: greater than 300 nM for the first, greater than 300 nM for the second.

First: CC#C[C@@H](CC(=O)O)c1ccc(OCc2ccc(CN3CC=C(c4ccccc4)CC3)cc2)cc1 [Example 28, (S)-3-(4-(4-((4-phenyl-5,6-dihydropyridin-1(2H)-yl)methyl)benzyloxy)phenyl)hex-4-ynoic acid]
Second: CC#C[C@@H](CC(=O)O)c1ccc(OCc2ccc(CN3CC=C(c4ccc(S(C)(=O)=O)cc4)CC3)cc2)cc1 [Example 32, (S)-3-(4-(4-((4-(4-(methylsulfonyl)phenyl)-5,6-dihydropyridin-1(2H)-yl)methyl)benzyloxy)phenyl)hex-4-ynoic acid]
The EC50 of the first is lower: less than 200 nM for the first, greater than 300 nM for the second.

`CC#CC(CC(=O)O)c1ccc(OCc2ccc(CN3CCN(c4ccc(OCCCS(C)(=O)=O)cc4)CC3)cc2)cc1` (stereo not drawn) [Example 20, 3-(4-(4-((4-(4-(3-(methylsulfonyl)propoxy)phenyl)piperazin-1-yl)methyl)benzyloxy)phenyl)hex-4-ynoic acid] and `CC#C[C@@H](CC(=O)O)c1ccc(OCc2ccc(CN3CCC(c4ccccc4)CC3)cc2)cc1` [Example 26, (S)-3-(4-(4-((4-phenylpiperidin-1-yl)methyl)benzyloxy)phenyl)hex-4-ynoic acid] cannot be ordered by EC50: greater than 300 nM for the first, greater than 300 nM for the second.

`CC#C[C@H](CC(=O)O)c1ccc(OCc2cccc(C3=CCC4(CC3)OCCO4)c2)cc1` [Example 8, (3R)-3-(4-(3-(1,4-dioxaspiro[4.5]dec-7-en-8-yl)benzyloxy)phenyl)hex-4-ynoic acid] and `CC#CC(CC(=O)O)c1ccc(OCc2cccc(C3=CCC4(CC3)OCCO4)c2)cc1` (stereo not drawn) [Example 1, 3-(4-(3-(1,4-dioxaspiro[4.5]dec-7-en-8-yl)benzyloxy)phenyl)hex-4-ynoic acid] cannot be ordered by EC50: greater than 300 nM for the first, greater than 300 nM for the second.

`CC#C[C@@H](CC(=O)O)c1ccc(OCc2ccc(CN3Cc4ccccc4C3)cc2)cc1` [Example 27, (S)-3-(4-(4-(isoindolin-2-ylmethyl)benzyloxy)phenyl)hex-4-ynoic acid] and `CC#C[C@@H](CC(=O)O)c1ccc(OCc2cccc(C3=CCC4(CC3)OCCO4)c2)cc1` [Example 7, (3S)-3-(4-(3-(1,4-dioxaspiro[4.5]dec-7-en-8-yl)benzyloxy)phenyl)hex-4-ynoic Acid] cannot be ordered by EC50: less than 200 nM for the first, less than 200 nM for the second.

`CC#CC(CC(=O)O)c1ccc(OCc2ccc(CN3CCN(c4ccccc4)CC3)cc2)cc1` (stereo not drawn) [Example 15, 3-(4-(4-((4-phenylpiperazin-1-yl)methyl)benzyloxy)phenyl)hex-4-ynoic acid] and `CC#C[C@@H](CC(=O)O)c1ccc(OCc2ccc(C(C)N3CCc4ccccc4C3)cc2)cc1` (stereo partly drawn) [Example 34, (3S)-3-(4-(4-(1-(3,4-dihydroisoquinolin-2(1H)-yl)ethyl)benzyloxy)phenyl)hex-4-ynoic acid] cannot be ordered by EC50: greater than 300 nM for the first, greater than 300 nM for the second.

`CC#CC(CC(=O)O)c1ccc(OCc2ccc(CN3CCc4ccccc4C3)c(C3=CCCCC3)c2)cc1` (stereo not drawn) [Example 13, 3-(4-(3-cyclohexenyl-4-((3,4-dihydroisoquinolin-2(1H)-yl)methyl)benzyloxy)phenyl)hex-4-ynoic acid] and `CC#C[C@@H](CC(=O)O)c1ccc(OCc2ccc(CN3CCN(c4ccc(O)cc4)CC3)cc2)cc1` [Example 35, (S)-3-(4-(4-((4-(4-hydroxyphenyl)piperazin-1-yl)methyl)benzyloxy)phenyl)hex-4-ynoic acid] cannot be ordered by EC50: greater than 300 nM for the first, greater than 300 nM for the second.

`CC#C[C@@H](CC(=O)O)c1ccc(OCc2ccc(CCN3Cc4ccccc4C3)cc2)cc1` [Example 49, (S)-3-(4-(4-(2-(isoindolin-2-yl)ethyl)benzyloxy)phenyl)hex-4-ynoic acid] and `CC#CC(CC(=O)O)c1ccc(OCc2ccc(CN3CCN(c4ccc(F)cc4)CC3)cc2)cc1` (stereo not drawn) [Example 18, 3-(4-(4-((4-(4-fluorophenyl)piperazin-1-yl)methyl)benzyloxy)phenyl)hex-4-ynoic acid] cannot be ordered by EC50: greater than 300 nM for the first, greater than 300 nM for the second.

same assay, conditions: HEK-293 cells transfected with human GPR40; values in text; read-out: concentration activating the GPR40 protein by 50% (EC50)

`CC#C[C@@H](CC(=O)O)c1ccc(OCc2ccc(CN3CC=C(c4ccccc4)CC3)cc2)cc1` [Example 28, (S)-3-(4-(4-((4-phenyl-5,6-dihydropyridin-1(2H)-yl)methyl)benzyloxy)phenyl)hex-4-ynoic acid] and `CC#C[C@@H](CC(=O)O)c1ccc(OCc2ccc(CN3Cc4ccccc4C3)cc2)cc1` [Example 27, (S)-3-(4-(4-(isoindolin-2-ylmethyl)benzyloxy)phenyl)hex-4-ynoic acid] cannot be ordered by EC50: no more than 200 nM for the first, no more than 200 nM for the second.

`CC#C[C@@H](CC(=O)O)c1ccc(OCc2cccc(C3=CCC4(CC3)OCCO4)c2)cc1` [Example 7, (3S)-3-(4-(3-(1,4-dioxaspiro[4.5]dec-7-en-8-yl)benzyloxy)phenyl)hex-4-ynoic Acid] was tested, and the EC50 was no more than 200 nM.
